Measured values as given in PubChem BioAssay AID1963442 (Molecular Pharmacology Branch, DTP, NCI, 2024).
Values joined by “and” are separate entries in the source; they are usually repeats but may differ in a detail not shown here. Equal entries are not always repeated.

Test system: MPNST complex spheroid with HUVEC/MSC, growth, % test/control
Experiment: Anticancer human tumor MPNST cell line growth inhibition [Asc];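 further: compounds left on spheroids for seven days before reading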
Conditions: for viability, T/C: stronger effect = lower value
How it was run: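 Spheroid model: tumor line + HUVEC + hMSC. Single agents and combinations; top conc. at/near clinical Cmax (10 microM if undetermined), half-log dilutions. DMSO stocks at 800-fold test concentration.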

[1] = curve of first compound, second compound 0.1 µM
[2] = curve of first compound, second compound 0.316 µM
[3] = curve of first compound, second compound 1 µM

In the case of `Cc1nc(N2CCC3(CC2)COC(C)C3N)c(CO)nc1Sc1ccnc(N)c1Cl` (centres undefined) + Cc1c(S(C)(=O)=O)c(-c2cc(F)cc(N3CCN(c4ccc(NS(=O)(=O)c5ccc(NC(CCN6CCC(C(=O)OCCCP(=O)(O)O)CC6)CSc6ccccc6)c(S(=O)(=O)C(F)(F)F)c5)cc4)CC3)c2)c(-c2ccc(Cl)cc2)n1C(C)C, the IC50 [1] is reported as > 3000 nM, the IC50 [2] is reported as > 3000 nM and the IC50 [3] is reported as > 3000 nM. For the same compound, the IC50 (curve of first compound, second compound 3.16 µM) was > 3000 nM, the IC50 (curve of first compound, second compound 10 µM) was > 3000 nM and the viability, T/C (second compound 0.1 µM, first compound 0.00949 µM) was 117%. It also gave a viability, T/C (second compound 0.1 µM, first compound 0.03 µM) of 152%, a viability, T/C (second compound 0.1 µM, first compound 0.0949 µM) of 143% and a viability, T/C (second compound 0.1 µM, first compound 0.3 µM) of 121%. For the same compound, the viability, T/C (second compound 0.1 µM, first compound 0.949 µM) was 104%, the viability, T/C (second compound 0.1 µM, first compound 3 µM) was 112% and the viability, T/C (second compound 0.316 µM, first compound 0.00949 µM) was 130%. The viability, T/C (second compound 0.316 µM, first compound 0.03 µM) was 136%, the viability, T/C (second compound 0.316 µM, first compound 0.0949 µM) was 157% and the viability, T/C (second compound 0.316 µM, first compound 0.3 µM) was 125%. It also gave a viability, T/C (second compound 0.316 µM, first compound 0.949 µM) of 117%, a viability, T/C (second compound 0.316 µM, first compound 3 µM) of 79.5% and a viability, T/C (second compound 1 µM, first compound 0.00949 µM) of 121%. For the same compound, the viability, T/C (second compound 1 µM, first compound 0.03 µM) was 148%, the viability, T/C (second compound 1 µM, first compound 0.0949 µM) was 126% and the viability, T/C (second compound 1 µM, first compound 0.3 µM) was 135%. It also gave a viability, T/C (second compound 1 µM, first compound 0.949 µM) of 96.2%, a viability, T/C (second compound 1 µM, first compound 3 µM) of 93.6% and a viability, T/C (second compound 3.16 µM, first compound 0.00949 µM) of 136%. It also gave a viability, T/C (second compound 3.16 µM, first compound 0.03 µM) of 141%, a viability, T/C (second compound 3.16 µM, first compound 0.0949 µM) of 164% and a viability, T/C (second compound 3.16 µM, first compound 0.3 µM) of 108%. It also gave a viability, T/C (second compound 3.16 µM, first compound 0.949 µM) of 117%, a viability, T/C (second compound 3.16 µM, first compound 3 µM) of 88.3% and a viability, T/C (second compound 10 µM, first compound 0.00949 µM) of 175%. The viability, T/C (second compound 10 µM, first compound 0.03 µM) was 159%, the viability, T/C (second compound 10 µM, first compound 0.0949 µM) was 153% and the viability, T/C (second compound 10 µM, first compound 0.3 µM) was 108%. It also gave a viability, T/C (second compound 10 µM, first compound 0.949 µM) of 125% and a viability, T/C (second compound 10 µM, first compound 3 µM) of 94.4%.
`Cn1ncnc1[C@H]1c2n[nH]c(=O)c3cc(F)cc(c23)N[C@@H]1c1ccc(F)cc1` + CNC(C)C(=O)NC1CN(S(=O)(=O)c2cccc(S(=O)(=O)N3CCC4CCC(C(=O)NC(c5ccccc5)c5ccccc5)N4C(=O)C(NC(=O)C(C)NC)C3)c2)CCC2CCC(C(=O)NC(c3ccccc3)c3ccccc3)N2C1=O was tested, and the IC50 (curve of first compound, second compound 0.00316 µM) was < 0.316 nM, the IC50 (curve of first compound, second compound 0.01 µM) was 1.09 nM and the IC50 (curve of first compound, second compound 0.0316 µM) was 23.2 nM. The IC50 [1] was 82.1 nM, the IC50 [2] was 26.7 nM and the IC50 [3] was 96.7 nM. It also gave a viability, T/C (second compound 0.00316 µM, first compound 0.000316 µM) of 12.2%, a viability, T/C (second compound 0.00316 µM, first compound 0.001 µM) of 11.4% and a viability, T/C (second compound 0.00316 µM, first compound 0.00316 µM) of 10.4%. The viability, T/C (second compound 0.00316 µM, first compound 0.01 µM) was 11.5%, the viability, T/C (second compound 0.00316 µM, first compound 0.0316 µM) was 11.3% and the viability, T/C (second compound 0.00316 µM, first compound 0.1 µM) was 10.7%. For the same compound, the viability, T/C (second compound 0.01 µM, first compound 0.000316 µM) was 58.8%, the viability, T/C (second compound 0.01 µM, first compound 0.001 µM) was 46.2% and the viability, T/C (second compound 0.01 µM, first compound 0.00316 µM) was 50.8%. For the same compound, the viability, T/C (second compound 0.01 µM, first compound 0.01 µM) was 37.4%, the viability, T/C (second compound 0.01 µM, first compound 0.0316 µM) was 32.5% and the viability, T/C (second compound 0.01 µM, first compound 0.1 µM) was 34.8%. It also gave a viability, T/C (second compound 0.0316 µM, first compound 0.000316 µM) of 77.7%, a viability, T/C (second compound 0.0316 µM, first compound 0.001 µM) of 73.9% and a viability, T/C (second compound 0.0316 µM, first compound 0.00316 µM) of 73.6%. It also gave a viability, T/C (second compound 0.0316 µM, first compound 0.01 µM) of 65.4%, a viability, T/C (second compound 0.0316 µM, first compound 0.0316 µM) of 43.5% and a viability, T/C (second compound 0.0316 µM, first compound 0.1 µM) of 45.2%. It also gave a viability, T/C (second compound 0.1 µM, first compound 0.000316 µM) of 90.3%, a viability, T/C (second compound 0.1 µM, first compound 0.001 µM) of 64.1% and a viability, T/C (second compound 0.1 µM, first compound 0.00316 µM) of 70.6%. For the same compound, the viability, T/C (second compound 0.1 µM, first compound 0.01 µM) was 74.7%, the viability, T/C (second compound 0.1 µM, first compound 0.0316 µM) was 61.1% and the viability, T/C (second compound 0.1 µM, first compound 0.1 µM) was 46.4%. The viability, T/C (second compound 0.316 µM, first compound 0.000316 µM) was 76.2%, the viability, T/C (second compound 0.316 µM, first compound 0.001 µM) was 62.5% and the viability, T/C (second compound 0.316 µM, first compound 0.00316 µM) was 88.4%. The viability, T/C (second compound 0.316 µM, first compound 0.01 µM) was 57.5%, the viability, T/C (second compound 0.316 µM, first compound 0.0316 µM) was 51.3% and the viability, T/C (second compound 0.316 µM, first compound 0.1 µM) was 46.1%. It also gave a viability, T/C (second compound 1 µM, first compound 0.000316 µM) of 51.3%, a viability, T/C (second compound 1 µM, first compound 0.001 µM) of 68.3% and a viability, T/C (second compound 1 µM, first compound 0.00316 µM) of 49.5%. It also gave a viability, T/C (second compound 1 µM, first compound 0.01 µM) of 73.9%, a viability, T/C (second compound 1 µM, first compound 0.0316 µM) of 53.9% and a viability, T/C (second compound 1 µM, first compound 0.1 µM) of 50.1%.
In the case of `C=CC(=O)N1CCN(c2nc(=O)n(-c3c(C)ccnc3C(C)C)c3nc(-c4c(O)cccc4F)c(F)cc23)C(C)C1` (centres undefined) + CCN1C(C(=O)NC23CCC(C(=O)O)(CC2)CC3)C(c2cccc(Cl)c2F)C2(C(=O)Nc3cc(Cl)ccc32)C12CCCCC2, the IC50 (curve of first compound, second compound 0.03 µM) is reported as > 10000 nM, the IC50 (curve of first compound, second compound 0.0949 µM) is reported as > 10000 nM and the IC50 (curve of first compound, second compound 0.3 µM) is reported as > 10000 nM. The IC50 (curve of first compound, second compound 0.949 µM) was > 10000 nM, the IC50 (curve of first compound, second compound 3 µM) was > 10000 nM and the viability, T/C (second compound 0.03 µM, first compound 0.0316 µM) was 62.4%. For the same compound, the viability, T/C (second compound 0.03 µM, first compound 0.1 µM) was 76.1%, the viability, T/C (second compound 0.03 µM, first compound 0.316 µM) was 73.3% and the viability, T/C (second compound 0.03 µM, first compound 1 µM) was 87.7%. The viability, T/C (second compound 0.03 µM, first compound 3.16 µM) was 106%, the viability, T/C (second compound 0.03 µM, first compound 10 µM) was 108% and the viability, T/C (second compound 0.0949 µM, first compound 0.0316 µM) was 84.9%. The viability, T/C (second compound 0.0949 µM, first compound 0.1 µM) was 85.3%, the viability, T/C (second compound 0.0949 µM, first compound 0.316 µM) was 99.8% and the viability, T/C (second compound 0.0949 µM, first compound 1 µM) was 103%. For the same compound, the viability, T/C (second compound 0.0949 µM, first compound 3.16 µM) was 98.8%, the viability, T/C (second compound 0.0949 µM, first compound 10 µM) was 124% and the viability, T/C (second compound 0.3 µM, first compound 0.0316 µM) was 75.7%. It also gave a viability, T/C (second compound 0.3 µM, first compound 0.1 µM) of 85.3%, a viability, T/C (second compound 0.3 µM, first compound 0.316 µM) of 93.6% and a viability, T/C (second compound 0.3 µM, first compound 1 µM) of 94.5%. For the same compound, the viability, T/C (second compound 0.3 µM, first compound 3.16 µM) was 90.2%, the viability, T/C (second compound 0.3 µM, first compound 10 µM) was 101% and the viability, T/C (second compound 0.949 µM, first compound 0.0316 µM) was 77.7%. For the same compound, the viability, T/C (second compound 0.949 µM, first compound 0.1 µM) was 71%, the viability, T/C (second compound 0.949 µM, first compound 0.316 µM) was 90.6% and the viability, T/C (second compound 0.949 µM, first compound 1 µM) was 77.7%. For the same compound, the viability, T/C (second compound 0.949 µM, first compound 3.16 µM) was 81%, the viability, T/C (second compound 0.949 µM, first compound 10 µM) was 117% and the viability, T/C (second compound 3 µM, first compound 0.0316 µM) was 85.9%. The viability, T/C (second compound 3 µM, first compound 0.1 µM) was 76.5%, the viability, T/C (second compound 3 µM, first compound 0.316 µM) was 59% and the viability, T/C (second compound 3 µM, first compound 1 µM) was 75.8%. The viability, T/C (second compound 3 µM, first compound 3.16 µM) was 79.8% and the viability, T/C (second compound 3 µM, first compound 10 µM) was 89.1%.
In the case of `CCN1CCN(Cc2ccc(Nc3ncc(F)c(-c4cc(F)c5nc(C)n(C(C)C)c5c4)n3)nc2)CC1`, the viability, T/C (compound 0.00316 µM) is reported as 73% and 74.2% and 85.2%, the viability, T/C (compound 0.01 µM) is reported as 91.6% and 72.8% and 69.6% and the viability, T/C (compound 0.0316 µM) is reported as 92.8% and 78.2% and 78.8%. The viability, T/C (compound 0.1 µM) was 70.1% and 54% and 60.7%, the viability, T/C (compound 0.316 µM) was 84.9% and 63% and 78.3% and the viability, T/C (compound 1 µM) was 92.1% and 65.1% and 69%. The IC50 (curve of compound) was > 1000 nM.
